Experimental data from US10626136B2, “Compositions and methods for improving Rebaudioside X solubility” (The Coca-Cola Company, priority 2012, dated 2020).

Experiments:
Format in all cases: physicochemical
[1] = Approximate water solubility by solvent addition method (aliquots of water, visual inspection)
Description: The approximate aqueous solubility can be determined by a solvent addition method in which a weighed sample is treated with aliquots of water. The mixture is generally vortexed and/or sonicated between additions to facilitate dissolution. Complete dissolution of the test material is determined by visual inspection. Solubility is estimated based on the total solvent used to provide complete dissolution.
(§1) The approximate water solubility of Form A and amorphous Rebaudioside X were determined by a solvent addition method in which a weighed sample was treated with aliquots of water. The mixture was generally vortexed and/or sonicated between additions to facilitate dissolution. Complete dissolution of the test material was determined by visual inspection. Solubility was estimated based on the total solvent used to provide complete dissolution. The actual solubility may be greater than the value calculated because of the use of solvent aliquots that were too large or due to a slow rate of dissolution.
as §1, with “approximate” for “approximate water”, “the complexes was measured” for “Form A and amorphous Rebaudioside X were determined”

[2] = Water solubility of material before and after the water process (Example 4); conditions: Example 4, before and after heating to 121° C. in water and spray drying
[3] = Duration of clarity of aqueous solutions, with or without filtration
Description: The water solubility of amorphous Rebaudioside X prepared according to Example 4 was compared in various test material/water ratios with or without filtration prior to solubility determination. Generally, filtration performed after dissolution of sample assist the duration of clarity of the sample (or delays the precipitation/recrystallization of sample).

[4] = Equilibrium solubility in water by UV (205 nm)
Description: Samples were analyzed with a Cary 50 UV-Vis dual beam spectrophotometer. The detector was zeroed with a cuvette filled with water prior to sample analysis. Samples were analyzed at room temperature in 1.0 cm quartz cuvette using a scan rate of 600 nm/min in a range of 200-400 nm.
25.8 mg of amorphous Rebaudioside X was added to a 10-mL volumetric flask and dissolved 10 mL with water. This stock solution was diluted to five concentration levels for UV measurement.
A calibration curve at 205 nm was established (Abs at 205 nm vs. concentration) to provide the equation y=5.0625x+0.0022. R^2 was 0.9999. This equation was used for the subsequent determination of Rebaudioside X concentrations.
250 mg of amorphous Rebaudioside X was added to an amber vial and 10 mL of water was added. The mixture was stirred at room temperature about 10 minutes to yield a transparent solution with only small amount of solid remaining. The mixture became opaque rapidly. The mixture was placed on a mechanical oscillator set at a speed of 250 and 25° C. At the sampling time point of 1, 16, 24, 48, 72, 96, and 192 hours, an aliquot of the slurry was transferred to a centrifuge tube and separated at a speed of 16K rcf for 15 minutes. 200 μL of the clear supernatant was transferred to a 50-mL volumetric flask, 10 mL of water was added and mixed well before UV analysis.

[5] = Dynamic Vapor Sorption (DVS)
Description: The Dynamic Vapor Sorption (DVS) DVS data were collected on a VTI SGA-100 Vapor Sorption Analyzer. NaCl and PVP were used as calibration standards. The sample was not dried prior to analysis. Sorption and desorption data were collected over a range from 5 to 95% RH at 10% RH increments under a nitrogen purge. The equilibrium criterion used for analysis was less than 0.0100% weight change in 5 minutes with a maximum equilibration time of 3 hours. Data were not corrected for the initial moisture content of the samples.

C=C1C[C@@]23CCC4[C@](C)(C(=O)OC5OC(CO)C(O)C(OC6OC(CO)C(O)C(O)C6O)C5OC5OC(CO)C(O)C(O)C5O)CCC[C@@]4(C)[C@@H]2CCC1(OC1OC(CO)C(O)C(OC2OC(CO)C(O)C(O)C2O)C1OC1OC(CO)C(O)C(O)C1O)C3 (stereo partly drawn) [Amorphous (ethanol process)]
Approximate Water Solubility [1]: >10000 µg/mL

C=C1C[C@@]23CCC4[C@](C)(C(=O)OC5OC(CO)C(O)C(OC6OC(CO)C(O)C(O)C6O)C5OC5OC(CO)C(O)C(O)C5O)CCC[C@@]4(C)[C@@H]2CCC1(OC1OC(CO)C(O)C(OC2OC(CO)C(O)C(O)C2O)C1OC1OC(CO)C(O)C(O)C1O)C3 (stereo partly drawn) [Amorphous (water process)]
Approximate Water Solubility [1]: >10000 µg/mL

C=C1C[C@@]23CCC4[C@](C)(C(=O)OC5OC(CO)C(O)C(OC6OC(CO)C(O)C(O)C6O)C5OC5OC(CO)C(O)C(O)C5O)CCC[C@@]4(C)[C@@H]2CCC1(OC1OC(CO)C(O)C(OC2OC(CO)C(O)C(O)C2O)C1OC1OC(CO)C(O)C(O)C1O)C3 (stereo partly drawn) [Form A]
Approximate Water Solubility [1]: 1400 µg/mL
approximate aqueous solubility [1]: 0.1 to about 0.14
water solubility ([2]; listed as Form A Rebaudioside X): 0.05%

C=C1C[C@@]23CC[C@H]4[C@@](C)(CCC[C@@]4(C)C(=O)O[C@@H]4O[C@H](CO)[C@@H](O)[C@H](O[C@@H]5O[C@H](CO)[C@@H](O)[C@H](O)[C@H]5O)[C@H]4O[C@@H]4O[C@H](CO)[C@@H](O)[C@H](O)[C@H]4O)[C@@H]2CC[C@]1(O[C@@H]1O[C@H](CO)[C@@H](O)[C@H](O[C@@H]2O[C@H](CO)[C@@H](O)[C@H](O)[C@H]2O)[C@H]1O[C@@H]1O[C@H](CO)[C@@H](O)[C@H](O)[C@H]1O)C3 [amorphous Rebaudioside X]
approximate aqueous solubility [1]: greater than 0.3%
approximate water solubility compared to Form A Rebaudioside X [1]: substantially increased
water solubility [2]: greater than 1%
Duration of Clarity of Sample ([3]; Sample 1: 250 mg/500 mL water, not filtered): >60 days
Duration of Clarity of Sample ([3]; Sample 2: 500 mg/500 mL water, not filtered): >60 days
Duration of Clarity of Sample ([3]; Sample 4: 1000 mg/500 mL water, not filtered): ^bMost Rebaudioside X dissolved quickly. However, a small amount of floating particles remained.
Duration of Clarity of Sample ([3]; Sample 6: 1750 mg/500 mL water, not filtered): ~0.12 days
Duration of Clarity of Sample ([3]; Sample 8: 1000 mg/100 mL water, filtered (0.22 μm membrane)): ~0.083 days
Average Sample Concentration ([4]; 250 mg in 10 mL water, 25° C.): Average Sample Concentration = 2.6 mg/mL
Original Sample Concentration ([4]; 250 mg in 10 mL water, 25° C., sampling time 1 hrs): 5.8 mg/mL
Original Sample Concentration ([4]; 250 mg in 10 mL water, 25° C., sampling time 16 hrs): 2.7 mg/mL
Original Sample Concentration ([4]; 250 mg in 10 mL water, 25° C., sampling time 24 hrs): 2.6 mg/mL
Original Sample Concentration ([4]; 250 mg in 10 mL water, 25° C., sampling time 48 hrs): 2.5 mg/mL
Original Sample Concentration ([4]; 250 mg in 10 mL water, 25° C., sampling time 72 hrs): 2.8 mg/mL
Original Sample Concentration ([4]; 250 mg in 10 mL water, 25° C., sampling time 96 hrs): 2.8 mg/mL
Original Sample Concentration ([4]; 250 mg in 10 mL water, 25° C., sampling time 192 hrs): 2.6 mg/mL
XRPD pattern of the solids recovered after solubility testing ([4]; after 8 days solubility testing in water): consistent with Form A, indicating conversion
solids recovered after DVS ([5]; XRPD after the DVS analysis): x-ray amorphous
weight loss upon desorption ([5]; desorption from 95% to 5% RH): 26.0 wt %
weight loss upon equilibration ([5]; equilibration at 5% RH): 3.1 wt %
weight gain on sorption ([5]; increasing the relative humidity from 5% to 95% RH): 26.3 wt %
hygroscopicity ([5]; judged from the large weight change): hygroscopic
